This is an account of results in patent US20110092529A1, “1,2,4-Triazole Derivatives and Their Use as Oxytocin Antagonists” (Pfizer Inc., priority 2005, published 2011).

This experiment addresses T1, oxytocin receptor (CHO-OTR/NFAT-β-Lactamase cells) (Homo sapiens, UniProt P30559).
T1 construct: expressed in transfected cells; host or cells: CHO (CHO-OTR line carrying an NFAT-β-lactamase reporter)
T1 sequence (P30559 1-389): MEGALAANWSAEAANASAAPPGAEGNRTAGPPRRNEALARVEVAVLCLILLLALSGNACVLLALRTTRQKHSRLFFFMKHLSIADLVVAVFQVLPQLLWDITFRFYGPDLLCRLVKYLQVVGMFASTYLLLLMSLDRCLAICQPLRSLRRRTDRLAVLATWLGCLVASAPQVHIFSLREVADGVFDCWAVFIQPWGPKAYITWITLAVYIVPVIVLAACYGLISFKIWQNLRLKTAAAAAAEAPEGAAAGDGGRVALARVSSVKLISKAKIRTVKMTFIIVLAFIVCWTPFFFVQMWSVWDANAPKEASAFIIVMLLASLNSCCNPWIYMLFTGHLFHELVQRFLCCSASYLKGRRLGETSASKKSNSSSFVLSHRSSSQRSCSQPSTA
Kind of experiment: Oxytocin Receptor Beta-Lactamase Assay. The note with it: oxytocin stimulation 4 hours, read-out: oxytocin antagonist activity, expressed as a Ki value. The experiment is classed as cell-based. As for the experimental part:
A suitable assay for determining the oxytocin antagonist activity of a compound is detailed herein below.
Oxytocin Receptor Beta-Lactamase Assay
Cells used are CHO-OTR/NFAT-β-Lactamase. The NFAT-β-lactamase expression construct was transfected into the CHO-OTR cell line and clonal populations were isolated via fluorescence activated cell sorting (FACS). An appropriate clone was selected to develop the assay.
Recovery of cells—A vial of frozen cells is thawed rapidly in 37° C. water bath and the cell suspension transferred into a T225 flask with 50 ml of fresh growth medium and then incubated at 37° C., 5% CO2 in an incubator until the cells adhered to the flask Replace media with 50 ml of fresh growth media the following day.
Culturing cells—CHO—OTR—NFAT-βLactamase cells were grown in growth medium. Cells were harvested when they reached 80-90% confluence removing the medium and washing with pre-warmed PBS. PBS was then removed and Trypsin/EDTA added (3 mls for T225 cm^2 flask) before incubating for 5 min in 37° C./5% CO2 incubator. When cells were detached, pre-warmed growth media was added (7 mls for T225 cm^2 flask) and the cells re-suspended and mixed gently by pipetting to achieve single cell suspension. […]
Cells grown at 80-90% confluence were harvested and counted. […]
Preparation of 1 ml of 6× Loading Buffer with Enhanced Loading Protocol (this requires scale-up according to number of plates to be screened) • 12 μl of solution A (1 mM CCF4-AM in Dry DMSO) was added to 60 μl of solution B (100 mg/ml Pluronic-F127 in DMSO+0.1% Acetic Acid) and vortexed. • The resulting solution was added to 925 μl of solution C (24% w/w PEG400, 18% TR40 v/v in water). • 75 μl of solution D was added (200 mM probenecid in 200 mM NaOH). • 10 μl of 6× Loading Buffer was added to all wells and incubated for 1.5 hrs-2 hrs at room temperature in the dark. • The plates were read using an LJL Analyst, Excitation 405 nm, Emission 450 nm and 530 nm, gain optimal, lagtime 0.40 μs integration, 4 flashes, bottom reading.
Regarding `COCc1nnc(N2CCC3(CC2)OCc2cc(F)ccc23)n1-c1ccc(OC)nc1` [Example 6, 5-fluoro-1′-[5-(methoxymethyl)-4-(6-methoxypyridin-3-yl)-4H-1,2,4-triazol-3-yl]-3H-spiro[2-benzofuran-1,4′-piperidine]], the Ki is 11.5 nM.
Next, `COc1ccc(-n2c(C)nnc2N2CCC3(CC2)COc2ccccc23)cn1` [Example 1, 1′-[4-(6-methoxypyridin-3-yl)-5-methyl-4H-1,2,4-triazol-3-yl]spiro[1-benzofuran-3,4′-piperidine]]: 12.9 nM; `COCc1nnc(N2CCC3(CC2)OCc2ccccc23)n1-c1ccc(OC)nc1` [Example 17, 1′-[5-(methoxymethyl)-4-(6-methoxypyridin-3-yl)-4H-1,2,4-triazol-3-yl]-3H-spiro[2-benzofuran-1,4′-piperidine]]: 10.2 nM.

As usually defined, the Ki is a measure of affinity in units of concentration, obtained from inhibition or displacement.
